Data from patent US10118930B2, “Piperidinylpyrazolopyrimidinones and their use” (BAYER PHARMA AKTIENGESELLSCHAFT, priority 2015, dated 2018).
Counter-ions that a name gives are not always drawn.

These compounds were tested on clot lysis (fibrinolysis) in diluted human citrated plasma, tPA-induced (assay: Plasma-based clot lysis assay (5%)). Conditions: human citrated platelet-poor plasma 5%, fibrinogen 3 μM, CaCl2 10 mM, tPA 0.2 nM, 37° C., OD at 405 nm.
Format: biochemical
Method in brief: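 Compounds added to 5% platelet-poor citrated human plasma with 3 μM fibrinogen in 20 mM HEPES, 150 mM NaCl, 0.01% Brij, pH 7. Clotting and lysis started with 10 mM CaCl2 and 0.2 nM tPA at 37° C. IC50 derived by comparing time courses with a blank control reaction.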

IC50 | Structure (SMILES)
54 nM | O=c1cc(C2CCNCC2)n2ncc(-c3noc(-c4cccc(Cl)c4F)n3)c2[nH]1 [Example 218, 3-[5-(3-chloro-2-fluorophenyl)-1,2,4-oxadiazol-3-yl]-7-(piperidin-4-yl)pyrazolo[1,5-a]pyrimidin-5(4H)-one hydrochloride]
35 nM | COc1ccccc1-c1nc(-c2cnn3c(C4CCNCC4)cc(=O)[nH]c23)no1 [Example 219, 3-[5-(2-methoxyphenyl)-1,2,4-oxadiazol-3-yl]-7-(piperidin-4-yl)pyrazolo[1,5-a]pyrimidin-5(4H)-one hydrochloride]
15 nM | Cc1ccc(-c2nc(-c3cnn4c(C5CCNCC5)cc(=O)[nH]c34)no2)cc1 [Example 220, 3-[5-(4-methylphenyl)-1,2,4-oxadiazol-3-yl]-7-(piperidin-4-yl)pyrazolo[1,5-a]pyrimidin-5 (4H)-one hydrochloride]
48 nM | O=C(O)c1noc(-c2cnn3c(C4CCNCC4)cc(=O)[nH]c23)n1 [Example 221, 5-[5-oxo-7-(piperidin-4-yl)-4,5-dihydropyrazolo[1,5-a]pyrimidin-3-yl]-1,2,4-oxadiazole-3-carboxylic acid hydrochloride]
37 nM | O=c1cc(C2CCNCC2)n2ncc(-c3nc(Cc4cccc(C(F)(F)F)c4)no3)c2[nH]1 [Example 222, 7-(piperidin-4-yl)-3-{3-[3-(trifluoromethyl)benzyl]-1,2,4-oxadiazol-5-yl}pyrazolo[1,5-a]pyrimidin-5(4H)-one hydrochloride]
31 nM | CC(C)(c1ccccc1)c1noc(-c2cnn3c(C4CCNCC4)cc(=O)[nH]c23)n1 [Example 223, 3-[3-(2-phenylpropan-2-yl)-1,2,4-oxadiazol-5-yl]-7-(piperidin-4-yl)pyrazolo[1,5-a]pyrimidin-5(4H)-one hydrochloride]
9.7 nM | O=c1cc(C2CCNCC2)n2ncc(-c3nc(Cc4ccc(F)cc4)no3)c2[nH]1 [Example 224, 3-[3-(4-fluorobenzyl)-1,2,4-oxadiazol-5-yl]-7-(piperidin-4-yl)pyrazolo[1,5-a]pyrimidin-5(4H)-one hydrochloride]
35 nM | O=c1cc(C2CCNCC2)n2ncc(-c3noc(-c4cccc(Cl)c4)n3)c2[nH]1 [Example 226, 3-[5-(3-chlorophenyl)-1,2,4-oxadiazol-3-yl]-7-(piperidin-4-yl)pyrazolo[1,5-a]pyrimidin-5 (4H)-one hydrochloride]
34 nM | O=c1cc(C2CCNCC2)n2ncc(-c3noc(-c4cccc(C(F)(F)F)c4)n3)c2[nH]1 [Example 227, 7-(piperidin-4-yl)-3-{5-[3-(trifluoromethyl)phenyl]-1,2,4-oxadiazol-3-yl}pyrazolo[1,5-a]pyrimidin-5(4H)-one hydrochloride]
33 nM | O=c1cc(C2CCNCC2)n2ncc(-c3noc(Cc4ccccc4)n3)c2[nH]1 [Example 228, 3-(5-benzyl-1,2,4-oxadiazol-3-yl)-7-(piperidin-4-yl)pyrazolo[1,5-a]pyrimidin-5(4H)-one hydrochloride]
36 nM | Cc1ccc(Cl)cc1-c1nc(-c2cnn3c(C4CCNCC4)cc(=O)[nH]c23)no1 [Example 230, 3-[5-(5-chloro-2-methylphenyl)-1,2,4-oxadiazol-3-yl]-7-(piperidin-4-yl)pyrazolo[1,5-a]pyrimidin-5(4H)-one hydrochloride]
34 nM | O=c1cc(C2CCNCC2)n2ncc(-c3noc(-c4ccc(C(F)(F)F)cc4)n3)c2[nH]1 [Example 231, 7-(piperidin-4-yl)-3-{5-[4-(trifluoromethyl)phenyl]-1,2,4-oxadiazol-3-yl}pyrazolo[1,5-a]pyrimidin-5(4H)-one hydrochloride]
71 nM | O=c1cc(C2CCNCC2)n2ncc(-c3noc(-c4ccc(C(F)(F)F)cc4Cl)n3)c2[nH]1 [Example 232, 3-{5-[2-chloro-4-(trifluoromethyl)phenyl]-1,2,4-oxadiazol-3-yl}-7-(piperidin-4-yl)pyrazolo[1,5-a]pyrimidin-5(4H)-one hydrochloride]
36 nM | O=c1cc(C2CCNCC2)n2ncc(-c3noc(-c4ccc(Cl)cc4)n3)c2[nH]1 [Example 233, 3-[5-(4-chlorophenyl)-1,2,4-oxadiazol-3-yl]-7-(piperidin-4-yl)pyrazolo[1,5-a]pyrimidin-5(4H)-one hydrochloride]
35 nM | O=c1cc(C2CCNCC2)n2ncc(-c3noc(-c4cc(Cl)cc(Cl)c4)n3)c2[nH]1 [Example 234, 3-[5-(3,5-dichlorophenyl)-1,2,4-oxadiazol-3-yl]-7-(piperidin-4-yl)pyrazolo[1,5-a]pyrimidin-5(4H)-one hydrochloride]
28 nM | O=c1cc(C2CCNCC2)n2ncc(-c3nc(C(O)c4ccccc4)no3)c2[nH]1 (stereo not drawn) [Example 238, 3-{3-[hydroxy(phenyl)methyl]-1,2,4-oxadiazol-5-yl}-7-(piperidin-4-yl)pyrazolo[1,5-a]pyrimidin-5(4H)-one hydrochloride]

IC50 | Structure (SMILES)
20 nM | COc1ccc(C(C)(C)c2nc(-c3cnn4c(C5CCNCC5)cc(=O)[nH]c34)no2)cc1 [Example 242, 3-{5-[2-(4-methoxyphenyl)propan-2-yl]-1,2,4-oxadiazol-3-yl}-7-(piperidin-4-yl)pyrazolo[1,5-a]pyrimidin-5(4H)-one hydrochloride]
29 nM | COc1ccc(C2(c3nc(-c4cnn5c(C6CCNCC6)cc(=O)[nH]c45)no3)CC2)cc1 [Example 245, 3-{5-[1-(4-methoxyphenyl)cyclopropyl]-1,2,4-oxadiazol-3-yl}-7-(piperidin-4-yl)pyrazolo[1,5-a]pyrimidin-5(4H)-one hydrochloride]
31 nM | COc1ccc(Cc2nc(-c3cnn4c(C5CCNCC5)cc(=O)[nH]c34)no2)cn1 [Example 251, 3-{5-[(6-methoxypyridin-3-yl)methyl]-1,2,4-oxadiazol-3-yl}-7-(piperidin-4-yl)pyrazolo[1,5-a]pyrimidin-5(4H)-one hydrochloride]
24 nM | CC(C)Oc1ccc(Cc2nc(-c3cnn4c(C5CCNCC5)cc(=O)[nH]c34)no2)cc1 [Example 252, 7-(piperidin-4-yl)-3-{5-[4-(propan-2-yloxy)benzyl]-1,2,4-oxadiazol-3-yl}pyrazolo[1,5-a]pyrimidin-5(4H)-one hydrochloride]
17 nM | CC(C)(c1ccc(F)cc1)c1noc(-c2cnn3c(C4CCNCC4)cc(=O)[nH]c23)n1 [Example 255, 3-{3-[2-(4-fluorophenyl)propan-2-yl]-1,2,4-oxadiazol-5-yl}-7-(piperidin-4-yl)pyrazolo[1,5-a]pyrimidin-5(4H)-one hydrochloride]
28 nM | CC(C)c1nc(-c2cnn3c(C4CCNCC4)cc(=O)[nH]c23)no1 [Example 256, 7-(piperidin-4-yl)-3-[5-(propan-2-yl)-1,2,4-oxadiazol-3-yl]pyrazolo[1,5-a]pyrimidin-5(4H)-one hydrochloride]
23 nM | CCc1nc(-c2cnn3c(C4CCNCC4)cc(=O)[nH]c23)no1 [Example 262, 3-(5-ethyl-1,2,4-oxadiazol-3-yl)-7-(piperidin-4-yl)pyrazolo[1,5-a]pyrimidin-5(4H)-one hydrochloride]
200 nM | CC(C)N1CCC(c2noc(-c3cnn4c(C5CCNCC5)cc(=O)[nH]c34)n2)CC1 [Example 264, 7-(piperidin-4-yl)-3-{3-[1-(propan-2-yl)piperidin-4-yl]-1,2,4-oxadiazol-5-yl}pyrazolo[1,5-a]pyrimidin-5(4H)-one hydrochloride]
20 nM | CC(C)(c1nnc(-c2cnn3c(C4CCNCC4)cc(=O)[nH]c23)o1)n1cncn1 [Example 275, 7-(piperidin-4-yl)-3-{5-[2-(1H-1,2,4-triazol-1-yl)propan-2-yl]-1,3,4-oxadiazol-2-yl}pyrazolo[1,5-a]pyrimidin-5(4H)-one hydrochloride]
14 nM | O=c1cc(C2CCNCC2)n2ncc(-c3nnc(Cc4ccccc4Cl)o3)c2[nH]1 [Example 276, 3-[5-(2-chlorobenzyl)-1,3,4-oxadiazol-2-yl]-7-(piperidin-4-yl)pyrazolo[1,5-a]pyrimidin-5(4H)-one hydrochloride]
19 nM | O=c1cc(C2CCNCC2)n2ncc(-c3nnc(C4(c5ccc(Cl)cc5)CC4)o3)c2[nH]1 [Example 278, 3-{5-[1-(4-chlorophenyl)cyclopropyl]-1,3,4-oxadiazol-2-yl}-7-(piperidin-4-yl)pyrazolo[1,5-a]pyrimidin-5(4H)-one hydrochloride]
25 nM | O=c1cc(C2CCNCC2)n2ncc(-c3nnc(Cc4c(F)cccc4Cl)o3)c2[nH]1 [Example 279, 3-[5-(2-chloro-6-fluorobenzyl)-1,3,4-oxadiazol-2-yl]-7-(piperidin-4-yl)pyrazolo[1,5-a]pyrimidin-5(4H)-one hydrochloride]
29 nM | COc1ccccc1Cc1nnc(-c2cnn3c(C4CCNCC4)cc(=O)[nH]c23)o1 [Example 280, 3-[5-(2-methoxybenzyl)-1,3,4-oxadiazol-2-yl]-7-(piperidin-4-yl)pyrazolo[1,5-a]pyrimidin-5(4H)-one hydrochloride]
34 nM | O=c1cc(C2CCNCC2)n2ncc(-c3nnc(CCN4CCOCC4)o3)c2[nH]1 [Example 282, 3-{5-[2-(morpholin-4-yl)ethyl]-1,3,4-oxadiazol-2-yl}-7-(piperidin-4-yl)pyrazolo[1,5-a]pyrimidin-5(4H)-one hydrochloride]
20 nM | O=c1cc(C2CCNCC2)n2ncc(-c3nnc(Cc4ccc(Cl)cc4)o3)c2[nH]1 [Example 284, 3-[5-(4-chlorobenzyl)-1,3,4-oxadiazol-2-yl]-7-(piperidin-4-yl)pyrazolo[1,5-a]pyrimidin-5(4H)-one hydrochloride]
33 nM | O=c1cc(C2CCNCC2)n2ncc(-c3nnc(O)o3)c2[nH]1 [Example 286, 3-(5-hydroxy-1,3,4-oxadiazol-2-yl)-7-(piperidin-4-yl)pyrazolo[1,5-a]pyrimidin-5(4H)-one hydrochloride]

Structure (SMILES) | IC50
CCc1cnn2c(C3CCNCC3)cc(=O)[nH]c12 [Example 265, 3-ethyl-7-(piperidin-4-yl)pyrazolo[1,5-a]pyrimidin-5(4H)-one hydrochloride] | 340 nM
